Assay results reported in patent publication US20060216333A1, “Methods related to the treatment of mucosal associated conditions” (priority 2003, published 2006).
Marks after values point to notes of the source that are not given here.

What was measured:
Type in all cases: in vivo, rat
[1] = test system: MCP-1; assay: Serum and vaginal tissue MCP-1 after intravaginal dosing of rats (ELISA); conditions: for MCP-1 Tissue: vaginal tissue, per 200 mg
Method: (§1) In the examples below the serum and intravaginal cytokine data were obtained using the following general test method.
(§2) Rats were acclimated to collars (Lomir Biomedical, Malone, N.Y.) around the neck on two consecutive days prior to actual dosing. Rats were collared to prevent removal of the device and ingestion of the drug. Animals were then dosed intravaginally with a removable device or with […] of cream. Single dosed rats received one intravaginal dose with samples collected at various times following dosing. Blood was collected by cardiac puncture. Blood was allowed to clot briefly at room temperature and serum was separated from the clot via centrifugation. The serum was stored at −20° C. until it was analyzed for cytokine concentrations.
(§3) Following blood collection, the rats were euthanized and their vaginal tract, including the cervix, was then removed and the tissue was weighed, placed in a sealed 1.8 mL cryovial and flash frozen in liquid nitrogen. The frozen vaginal tissue sample was then suspended in 1.0 mL of RPMI medium (Celox, St. Paul, Minn.) containing 10% fetal bovine serum (Atlas, Fort Collins, Colo.), 2 mM L-glutamine, penicillin/streptomycin and 2-mercaptoethanol (RPMI complete) combined with a protease inhibitor cocktail set III (Calbiochem, San Diego, Calif.). The tissue was homogenized using a Tissue Tearor (Biospec Products, Bartlesville, Okla.) for approximately one minute. The tissue suspension was then centrifuged at 2000 rpm for 10 minutes under refrigeration to pellet the debris, and the supernatant collected and stored at −20° C. until analyzed for cytokine concentrations.
(§4) ELISA kits for rat TNF were purchased from BD PharMingen (San Diego, Calif.) and the rat MCP-1 ELISA kits were purchased from BioSource Intl. (Camarillo, Calif.).
(§5) Both kits were performed according to manufacturer's specifications. Results for both TNF and MCP-1 are expressed in pg/mL and are normalized per 200 mg of tissue. […] “Post dosing” means after treatment initiation. For example, if a device was inserted a time 0 hours and removed at 2 hours and cytokines were assayed at 4 hours, then the cytokines were assayed at 4 hours post dosing.

[2] = test system: TNF; assay: Serum and vaginal tissue TNF after intravaginal dosing of rats (ELISA); conditions: for TNF Tissue: vaginal tissue, per 200 mg
Method: as §1, §2, §3, §4, §5

[3] = test system: rats; assay: Histologic examination of vaginas and vulvas, Example 10; conditions: necropsied 24 hours after treatment initiation
Method: (§6) Groups of 3 rats were treated as described in Example 5 and necropsied 22 hours after the devices were removed. Vaginas and vulvas were collected, fixed and processed routinely for histologic examination. Inflammation was scored as follows: 0=none, 1=minimal, 2=mild, 3=moderate, 4=severe. The values in the tables are the mean of the scores for 3 rats.
Cotton devices were prepared as described in Example 1. The devices were saturated with a solution containing 5% by weight of IRM 3 in 50/50 w/w isostearic acid/isopropyl myristate. One group of 5 rats was dosed intravaginally with the devices. The devices were removed after 2 hours. A second group of 5 rats was dosed intravaginally with 5% IRM 3 cream. The cream was washed out after 2 hours. A third group of 5 rats was dosed intravaginally with 5% IRM 3 cream but the cream was not removed. The rats were necropsied 24 hours after treatment initiation. Vaginas and vulvas were collected, fixed and processed routinely for histologic examination. The scoring system described in Example 9 was used.

[4] = test system: rats; assay: Histologic examination of vaginas and vulvas, Example 9; conditions: removed after 2 hours, necropsied 22 hours after removal; for Vagina Erosion or ulceration / Vulva Erosion or ulceration: incidence; for Vagina Inflammation / Vulva Inflammation: mean score, 0=none to 4=severe
Method: Devices were prepared from either cotton as described in Example 1 or from polyurethane foam (Medisorb 100—1.25:Polysorbate 60 at 1% concentration at 1.25/1 ratio, from Lendell Manufacturing, Inc, St. Charles, Mich.). The devices were saturated with one of the following solutions: 0.1% ERM 3 in 50/50 ISA/IPM; 1.0% IRM 3 in 50/50 ISA/IPM; 3.0% IRM 3 in 50/50 ISA/IPM or with 50/50 ISA/IPM (vehicle). Rats were dosed intravaginally; the devices were removed after 2 hours. […] Cytokines were assayed at 4 hours post dosing. The results are shown in the table below where each value is the mean of the values for 3 rats.
as §6

[5] = 2 hr post dose, 5% in 50/50 ISA/IPM, cotton pellet device removed after 2 hours, Example 7
[6] = 4 hours post dosing, 0.1% in 50/50 ISA/IPM, cotton device removed after 2 hours, Example 5
[7] = 4 hours post dosing, 0.1% in 50/50 ISA/IPM, foam device removed after 2 hours, Example 5
[8] = 4 hours post dosing, 1.0% in 50/50 ISA/IPM, cotton device removed after 2 hours, Example 5
[9] = 4 hours post dosing, 1.0% in 50/50 ISA/IPM, foam device removed after 2 hours, Example 5
[10] = 4 hours post dosing, 3.0% in 50/50 ISA/IPM, cotton device removed after 2 hours, Example 5
[11] = 4 hours post dosing, 3.0% in 50/50 ISA/IPM, foam device removed after 2 hours, Example 5
[12] = 4 hr post dose, 5% in 50/50 ISA/IPM, cotton pellet device removed after 2 hours, Example 7
[13] = 6 hr post dose, 5% in 50/50 ISA/IPM, cotton pellet device removed after 2 hours, Example 7
[14] = incidence, cotton device 5% removed after 2 hours

CC(C)Cn1cnc2c(N)nc3cccnc3c21 [IRM 3, 1-(2-methylpropyl)-1H-imidazo[4,5-c][1,5]naphthyridin-4-amine]
MCP-1 Serum [1, 5]: 95 pg/mL | MCP-1 Serum [1, 6]: 72 pg/mL | MCP-1 Serum [1, 7]: 77 pg/mL | MCP-1 Serum [1, 8]: 111 pg/mL | MCP-1 Serum [1, 9]: 86 pg/mL | MCP-1 Serum [1, 10]: 79 pg/mL | MCP-1 Serum [1, 11]: 105 pg/mL | MCP-1 Serum [1, 12]: 114 pg/mL | MCP-1 Serum [1, 13]: 171 pg/mL | MCP-1 Tissue [1, 5]: 815 pg/mL | MCP-1 Tissue [1, 6]: 179 pg/mL | MCP-1 Tissue [1, 7]: 143 pg/mL | MCP-1 Tissue [1, 8]: 468 pg/mL | MCP-1 Tissue [1, 9]: 279 pg/mL | MCP-1 Tissue [1, 10]: 402 pg/mL | MCP-1 Tissue [1, 11]: 351 pg/mL | MCP-1 Tissue [1, 12]: 1260 pg/mL | MCP-1 Tissue [1, 13]: 840 pg/mL | TNF Serum [2, 5]: 4 pg/mL | TNF Serum [2, 6]: 0 pg/mL | TNF Serum [2, 7]: 0 pg/mL | TNF Serum [2, 8]: 0 pg/mL | TNF Serum [2, 9]: 0 pg/mL | TNF Serum [2, 10]: 0 pg/mL | TNF Serum [2, 11]: 0 pg/mL | TNF Serum [2, 12]: 3 pg/mL | TNF Serum [2, 13]: 5 pg/mL | TNF Tissue [2, 5]: 809 pg/mL | TNF Tissue [2, 6]: 108 pg/mL | TNF Tissue [2, 7]: 85 pg/mL | TNF Tissue [2, 8]: 173 pg/mL | TNF Tissue [2, 9]: 148 pg/mL | TNF Tissue [2, 10]: 175 pg/mL | TNF Tissue [2, 11]: 302 pg/mL | TNF Tissue [2, 12]: 608 pg/mL | TNF Tissue [2, 13]: 114 pg/mL | Vagina - erosion [3, 14]: 0/5 | Vagina - ulceration [3, 14]: 0/5 | Vulva - preulcer [3, 14]: 3/5 | Vulva - ulceration [3, 14]: 0/5 | Vagina - Inflammation ([3]; mean score, 0=none to 4=severe, cotton device 5% in 50/50 ISA/IPM removed after 2 hours): 3.1 | Vulva - Inflammation ([3]; mean score, 0=none to 4=severe, cotton device 5% removed after 2 hours): 1.7 | Vagina Erosion or ulceration ([4]; cotton device 0.1%): 0/3 | Vulva Erosion or ulceration ([4]; cotton device 0.1%): 0/3 | Vagina Erosion or ulceration ([4]; cotton device 1.0%): 0/3 | Vulva Erosion or ulceration ([4]; cotton device 1.0%, tissue from 1 rat not assessable): 0/2* | Vagina Erosion or ulceration ([4]; cotton device 3.0%): 0/3 | Vulva Erosion or ulceration ([4]; cotton device 3.0%): 0/3 | Vagina Erosion or ulceration ([4]; foam device 0.1%): 0/3 | Vulva Erosion or ulceration ([4]; foam device 0.1%): 0/3 | Vagina Erosion or ulceration ([4]; foam device 1.0%): 0/3 | Vulva Erosion or ulceration ([4]; foam device 1.0%): 0/3 | Vagina Erosion or ulceration ([4]; foam device 3.0%): 0/3 | Vulva Erosion or ulceration ([4]; foam device 3.0%, tissue from 1 rat not assessable): 0/2* | Vagina Inflammation ([4]; cotton device 0.1% in 50/50 ISA/IPM): 1.0 | Vulva Inflammation ([4]; cotton device 0.1%): 0.33 | Vagina Inflammation ([4]; cotton device 1.0% in 50/50 ISA/IPM): 2.5 | Vulva Inflammation ([4]; cotton device 1.0%): 0.5 | Vagina Inflammation ([4]; cotton device 3.0% in 50/50 ISA/IPM): 3.17 | Vulva Inflammation ([4]; cotton device 3.0%): 2.17 | Vagina Inflammation ([4]; foam device 0.1% in 50/50 ISA/IPM): 2.17 | Vulva Inflammation ([4]; foam device 0.1%): 0.33 | Vagina Inflammation ([4]; foam device 1.0% in 50/50 ISA/IPM): 2.83 | Vulva Inflammation ([4]; foam device 1.0%): 0.33 | Vagina Inflammation ([4]; foam device 3.0% in 50/50 ISA/IPM): 2.5 | Vulva Inflammation ([4]; foam device 3.0%): 1.75
